In patent US20130281544A1, “HEPATOPROTECTANT ACTIVITY OF GARCINOL” (priority 2010, published 2013):

Tested on: paracetamol induced liver damage in rats
Assay: Serum enzymes ALT, AST, ALP in paracetamol (APAP) induced liver damage
Format: in vivo, Male Wistar Rats
Details: for ALP percent change / ALT percent change / AST percent change / ALP / ALT / AST: serum; for ALP / ALT / AST: Mean ± SE
Protocol: Doses of Garcinol (GC) used for the study: 1.25, 2.5, 5, 10 mg/kg p.o.
Standard drug: Silymarin (50 mg/kg) p.o.
Experimental animals orally received paracetamol (400 mg/kg body weight) for seven days. The animals from drug treated group received 400 mg/kg body weight of paracetamol dissolved in water orally along with graded doses of test drug Garcinol for seven days. The standard group animals received 50 mg/kg body weight of standard drug silymarin and 400 mg/kg body weight of paracetamol for seven days and served as standard control. [N. Kanchana and A. Mohamed Sadiq, Hepatoprotective effect of Plumbago zeylanica on paracetamol induced liver toxicity in rats, Int J Pharm Pharm Sci, Vol 3, Issue 1, 151-154 (2011)].
Blood was collected from the retro-orbital plexus of experimental animals and no anti-coagulant was added. Blood was made to stand at room temperature for 1 hour. It was then centrifuged and clear serum was separated. The serum was then stored for analysis. Reference: (Magari et al., 2004).
(ASPARTATE AMINOTRANSFERASE and ALANINE AMINOTRANSFERASE), Reference: Ritman S, Frankel S, (1957). A colorimeteric method for the determination of serum glutamic oxaloacetic and glutamic pyruvic transaminases. American Journal of Clinical Pathology; 28: 56-63.
0.2 ml of serum, collected from test and control samples, was mixed with 1.0 ml of buffer solution and incubated for 60 min at 37° C. in a water bath. After the addition of 1.0 ml of chromogen solution, the samples were kept at room temperature for 20 minutes for the reaction to proceed and 10 ml NaOH was added. The optical density was red at 546 nm after 5 min. To the blank, serum was added after the addition of chromogen solution.
(ALKALINE PHOSPHATASE), Reference: Klaus Walter and Schutt C. (1974). Acid and alkaline phosphatase in serum. In: Methods of Enzymatic Analysis. Eds. Hans Ulrich Bergmeyer, Verlag ChemieWeinheim, Academic press, Inc. New York, 2nd Edition, Vol. 2, pp. 855-64.
Alkaline phosphatase activity measurement is based on the ability of the enzyme to hydrolyze p-nitrophenol phosphate under alkaline conditions. The cleaved product p-nitrophenol is yellow in alkaline solution and is measured at 400-420 nm (Klaus and Schutt, 1974). 2.0 ml of buffered substrate was taken in the tubes ‘Test’ ‘Control’ and ‘Blank’ followed by addition of serum and distilled water (0.1 ml) in ‘Test’ and ‘Blank’ respectively and incubated in a water bath for 30 minutes at 25° C. After incubation sodium hydroxide was added (0.25 N, 2 ml) to all the tubes, which was followed by serum (0.1 ml) to the tubes marked ‘Control’. The yellow colour formed was measured spectrophotometrically against blank at 410 nm. […]

In the case of `C=C(C)[C@@H](CC=C(C)C)C[C@@]12C[C@@H](CC=C(C)C)C(C)(C)[C@@](CC=C(C)C)(C(=O)C(C(=O)c3ccc(O)c(O)c3)=C1O)C2=O` [Garcinol], the “Average Protection” value (1.25 mg/kg p.o.) is reported as 13.06%, the “Average Protection” value (2.50 mg/kg p.o.) is reported as 21.51% and the “Average Protection” value (5.00 mg/kg p.o.) is reported as 36.31%. For the same compound, the “Average Protection” value (10.00 mg/kg p.o.) was 33.22%, the ALP percent change (1.25 mg/kg p.o.) was “(8.21) %” and the ALT percent change (1.25 mg/kg p.o.) was “(21.69) %”. The AST percent change (1.25 mg/kg p.o.) was “(9.30) %”, the ALP (1.25 mg/kg p.o.) was 37.21 ± 3.44 μmol min/lt and the ALT (1.25 mg/kg p.o.) was 862.97 ± 53.38 μmol min/lt. For the same compound, the AST (1.25 mg/kg p.o.) was 761.61 ± 43.96 μmol min/lt, the ALP percent change (2.50 mg/kg p.o.) was “(15.44) %” and the ALT percent change (2.50 mg/kg p.o.) was “(26.62) %”. The AST percent change (2.50 mg/kg p.o.) was “(22.49) %”, the ALP (2.50 mg/kg p.o.) was 34.28 ± 1.98 μmol min/lt and the ALT (2.50 mg/kg p.o.) was 808.64 ± 38.55 μmol min/lt. For the same compound, the AST (2.50 mg/kg p.o.) was 650.88 ± 35.84 μmol min/lt, the ALP percent change (5.00 mg/kg p.o.) was “(24.17) %” and the ALT percent change (5.00 mg/kg p.o.) was “(39.96) %”. The AST percent change (5.00 mg/kg p.o.) was “(44.81) %”, the ALP (5.00 mg/kg p.o.) was 30.74 ± 2.05 μmol min/lt and the ALT (5.00 mg/kg p.o.) was 661.67 ± 51.40 μmol min/lt. For the same compound, the AST (5.00 mg/kg p.o.) was 463.41 ± 38.56 μmol min/lt, the ALP percent change (10.00 mg/kg p.o.) was “(17.11) %” and the ALT percent change (10.00 mg/kg p.o.) was “(46.44) %”. The AST percent change (10.00 mg/kg p.o.) was “(36.12) %”, the ALP (10.00 mg/kg p.o.) was 33.60 ± 1.93 μmol min/lt and the ALT (10.00 mg/kg p.o.) was 590.22 ± 50.98 μmol min/lt. For the same compound, the AST (10.00 mg/kg p.o.) was 536.39 ± 44.13 μmol min/lt.
